Bounds are passed on as bounds.

In one assay the target is T1, hP2X4 (human purinergic P2X receptor subtype 4) (Homo sapiens, UniProt Q99571).
T1 sequence (Q99571 1-404 isoform Q99571-2): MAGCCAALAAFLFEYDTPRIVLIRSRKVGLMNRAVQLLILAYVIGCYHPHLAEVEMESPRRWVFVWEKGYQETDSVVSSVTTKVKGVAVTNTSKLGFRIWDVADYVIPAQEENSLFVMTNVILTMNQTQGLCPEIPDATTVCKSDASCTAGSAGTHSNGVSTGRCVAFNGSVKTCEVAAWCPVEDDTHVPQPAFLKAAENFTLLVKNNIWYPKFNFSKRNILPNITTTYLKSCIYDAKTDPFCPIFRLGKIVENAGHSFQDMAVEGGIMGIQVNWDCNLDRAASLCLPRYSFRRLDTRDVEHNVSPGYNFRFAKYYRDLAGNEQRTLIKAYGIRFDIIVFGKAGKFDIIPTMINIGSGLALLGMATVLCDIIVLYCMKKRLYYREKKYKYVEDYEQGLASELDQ
In words: FLIPR assay of intracellular calcium increase induced by activation of hP2X4 expressed in HEK293 cells (agonist BZ-ATP 2.5 μM). The assay is classed as cell-based. The conditions noted are these: HEK293 cells stably expressing hP2X4, FLIPR, class symbols, read-out: P2X4 IC50. On the procedure:
The antagonist property of the compounds disclosed herein was determined using the FLIPR (fluorescence imaging plate reader) method, wherein the compounds are inhibitors for the intracellular calcium increase induced by activation of hP2X4 (human purinergic P2X receptor subtype 4, accession No. NM_001256796.2) expressed in HEK293 cells (human renal epithelial cell line, ATCC).
HEK293 cells stably expressing hP2X4 were cultured in DMEM high glucose medium containing 10% FBS (fetal bovine serum, Biosera, FB-1058/500), 1% penicillin-streptomycin (Gibco, 15140-122) and 1 mg/mL G418 (CABIOCHE, 345810) in a cell incubator (37° C., […]). Cells at 400,000 cells/mL were seeded into a 384-well plate (10,000 cells/well) 18-24 h prior to the FLIPR experiment and then incubated overnight in a cell incubator. On the day of the experiment, the medium was discarded and the cells were washed in an FLIPR buffer (0.3 mL of probenecid (Thermo, P36400), 0.6 mL of 1 M HEPES (Invitrogen, 15630080) and 29.1 mL of HBSS (Invitrogen, 14065056) per 30 mL of the buffer). Each well was added with 20 μL of 0.5× Calcium 6 fluorescent dye (Molecular Devices, R8190) and then the cells were subjected to dye-loading incubation at 37° C. for 1.5 h. Each well was added with 10 μL of respective test compound (dissolved in DMSO at a concentration of 10 mM and serially diluted with buffer) or vehicle and the mixture was equilibrated for 30 min at room temperature. The cell plate was then placed in the FLIPR for baseline fluorescence measurements (excitation at 485 nm and emission at 525-535 nm). An agonist (BZ-ATP (Sigma, B6396) at a final concentration of 2.5 μM) or a vehicle (ultrapure water) was then added at 10 μL/well, fluorescence values were measured for 2 min at 1-second intervals, and finally the output fluorescence counts were analyzed.
With `COc1ccc(Cn2ncc3c(S(N)(=O)=O)cc(NC(=O)Cc4ccccc4Cl)cc32)c(F)c1` [Compound 83, 2-(2-chlorophenyl)-N-(1-(2-fluoro-4-methoxybenzyl)-4-sulfamoyl-1H-indazol-6-yl)acetamide], the IC50 is at most 10 nM.

Take `NS(=O)(=O)c1cc(NC(=O)Cc2ccccc2Cl)cc2c1cnn2Cc1ccc(Cl)cc1` [Compound 89A, N-(1-(4-chlorobenzyl)-4-sulfamoyl-1H-indazol-6-yl)-2-(2-chlorophenyl)acetamide]: the IC50 was at most 10 nM.

In the case of `NS(=O)(=O)c1cc(NC(=O)Cc2ccccc2Cl)cc2cnn(CCO)c12` [Compound 48-B, 2-(2-chlorophenyl)-N-(1-(2-hydroxyethyl)-7-sulfamoyl-1H-indazol-5-yl)acetamide], the IC50 is 200 to 5000 nM.

For the compound `CC(C)(F)n1cc2c(S(N)(=O)=O)cc(NC(=O)Cc3ccccc3Cl)cc2n1` [Compound 13, 2-(2-chlorophenyl)-N-(2-(2-fluoropropan-2-yl)-4-sulfamoyl-2H-indazol-6-yl)acetamide], the IC50 lay within 10 to 50 nM.

As to `NS(=O)(=O)c1cc(NC(=O)Cc2ccccc2Cl)cc2c1CN(Cc1ccc(F)cc1)C2` [Compound 132, 2-(2-chlorophenyl)-N-(2-(4-fluorobenzyl)-7-sulfamoyliodo-5-yl)acetamide], the IC50 lay in the range of 200 to 5000 nM.

In the case of `CC(C)C1(n2cc3c(S(N)(=O)=O)cc(NC(=O)Cc4ccccc4Cl)cc3n2)CC1` [Compound 17, 2-(2-chlorophenyl)-N-(2-(1-isopropylcyclopropyl)-4-sulfamoyl-2H-indazol-6-yl)acetamide], the IC50 is 10 to 50 nM.

Turning to `NS(=O)(=O)c1cc(NC(=O)Cc2ccccc2Cl)cc2nn(CCO)cc12` [Compound 27-A, 2-(2-chlorophenyl)-N-(2-(2-hydroxyethyl)-4-sulfamoyl-2H-indazol-6-yl)acetamide], the concentration for half-maximal inhibition (IC50) lay within 200 to 5000 nM.

Take `CC(c1ccc(F)cc1)n1ncc2c(S(N)(=O)=O)cc(NC(=O)Cc3ccccc3Cl)cc21` (stereo not shown) [Compound 40-B, 2-(2-chlorophenyl)-N-(1-(1-(4-fluorophenyl)ethyl)-4-sulfamoyl-1H-indazol-6-yl)acetamide]: the 50% inhibitory concentration (IC50) is at most 10 nM.

Turning to `COc1ccc(Cn2cc3c(S(N)(=O)=O)cc(NC(=O)Cc4ccccc4Cl)cc3n2)c(Cl)c1` [Compound 86], the half-maximal inhibitory concentration (IC50) is at most 10 nM.

In the case of `CC1(n2cc3c(S(N)(=O)=O)cc(NC(=O)Cc4ccccc4Cl)cc3n2)CC1` [Compound 22, 2-(2-chlorophenyl)-N-(2-(1-methylcyclopropyl)-4-sulfamoyl-2H-indazol-6-yl)acetamide], the IC50 is 10 to 50 nM.

In the case of `COc1ccc(Cn2cc3c(S(N)(=O)=O)cc(NC(=O)Cc4ccccc4Cl)cc3n2)c(Br)c1` [Compound 87], the half-inhibitory concentration (IC50) is at most 10 nM.

For `NS(=O)(=O)c1cc(NC(=O)Cc2ccccc2Cl)cc2nn(C(=O)c3ccc(F)cc3)cc12` [Compound 42-A, 2-(2-chlorophenyl)-N-(2-(4-fluorobenzoyl)-4-sulfamoyl-2H-indazol-6-yl)acetamide], the IC50 lay in the range of 10 to 50 nM.

Regarding `NS(=O)(=O)c1cc(NC(=O)CC2CCCCC2O)cc2nn(C(F)F)cc12` (stereo not shown) [Compound 136, N-(2-(difluoromethyl)-4-sulfamoyl-2H-indazol-6-yl)-2-(2-hydroxycyclohexyl)acetamide], the IC50 fell in the range of 200 to 5000 nM.

`CC1(N2Cc3cc(NC(=O)Cc4ccccc4Cl)cc(S(N)(=O)=O)c3C2)COC1` [Compound 130, 2-(2-chlorophenyl)-N-(2-(3-methyloxetan-3-yl)-7-sulfamoylisoindolin-5-yl)acetamide]: the concentration for half-maximal inhibition (IC50) lay in the range of 200 to 5000 nM.

Regarding `NS(=O)(=O)c1cc(NC(=O)Cc2ccccc2Cl)cc2c1cnn2CC1CCCCC1` [Compound 32-B, 2-(2-chlorophenyl)-N-(1-(cyclohexylmethyl)-4-sulfamoyl-1H-indazol-6-yl)acetamide], the half-maximal inhibitory concentration (IC50) is 10 to 50 nM.

Take `NS(=O)(=O)c1cc(NC(=O)Cc2ccccc2Cl)cc2nn(C(F)(F)C3CC3)cc12` [Compound 20, 2-(2-chlorophenyl)-N-(2-(cyclopropyldifluoromethyl)-4-sulfamoyl-2H-indazol-6-yl)acetamide]: the IC50 lay within 10 to 50 nM.

In the case of `CC(C)OCCn1ncc2c(S(N)(=O)=O)cc(NC(=O)Cc3ccccc3Cl)cc21` [Compound 26-B, 2-(2-chlorophenyl)-N-(1-(2-isopropoxyethyl)-4-sulfamoyl-1H-indazol-6-yl)acetamide], the IC50 is 200 to 5000 nM.

In the case of `NS(=O)(=O)c1cc(NC(=O)Cc2ccccc2Cl)cc2nn(Cc3ccc(C(F)(F)F)cc3)cc12` [Compound 90, 2-(2-chlorophenyl)-N-(4-sulfamoyl-2-(4-(trifluoromethyl)benzyl)-2H-indazol-6-yl)acetamide], the IC50 was at most 10 nM.

Take `NS(=O)(=O)c1cc(NC(=O)Cc2ccccc2Cl)cc2c1ncn2-c1ccc(Cl)cc1` [Compound 55, 2-(2-chlorophenyl)-N-(1-(4-chlorophenyl)-4-sulfamoyl-1H-benzo[d]imidazol-6-yl)acetamide]: the IC50 fell in the range of 10 to 50 nM.

As to `CN(C)c1cccc(Cn2ncc3c(S(N)(=O)=O)cc(NC(=O)Cc4ccccc4Cl)cc32)c1` [Compound 46, 2-(2-chlorophenyl)-N-(1-(3-(dimethylamino)benzyl)-4-sulfamoyl-1H-indazol-6-yl)acetamide], the 50% inhibitory concentration (IC50) was 10 to 50 nM.

On to `NS(=O)(=O)c1cc(NC(=O)Cc2ccccc2Cl)cc2c1CN(C(=O)c1ccc(F)cc1)C2` [Compound 131, 2-(2-chlorophenyl)-N-(2-(4-fluorobenzoyl)-7-sulfamoylisoindolin-5-yl)acetamide], for which the concentration for half-maximal inhibition (IC50) fell in the range of 10 to 50 nM.

Regarding `COc1ccc(Cn2cc3c(S(C)(=N)=O)cc(NC(=O)Cc4ccccc4Cl)cc3n2)cc1` (stereo not shown) [Compound 137, 2-(2-chlorophenyl)-N-(2-(4-methoxybenzyl)-4-(S-methylsulfonylimino)-2H-indazol-6-yl)acetamide], the IC50 is 200 to 5000 nM.

`NS(=O)(=O)c1cc(NC(=O)Cc2ccccc2Cl)cc2nn(C(F)C3CC3)cc12` (stereo not shown) [Compound 19, 2-(2-chlorophenyl)-N-(2-(cyclopropylfluoromethyl)-4-sulfamoyl-2H-indazol-6-yl)acetamide]: the IC50 was 10 to 50 nM.

On to `COc1ccccc1CC(=O)Nc1cc(S(N)(=O)=O)c2cn(C(F)F)nc2c1` [Compound 115, N-(2-(difluoromethyl)-4-sulfamoyl-2H-indazol-6-yl)-2-(2-methoxyphenyl)acetamide], for which the IC50 lay within 200 to 5000 nM.

Take `COCCn1cc2c(S(N)(=O)=O)cc(NC(=O)Cc3ccccc3Cl)cc2n1` [Compound 25, 2-(2-chlorophenyl)-N-(2-(2-methoxyethyl)-4-sulfamoyl-2H-indazol-6-yl)acetamide]: the IC50 was 10 to 50 nM.

As to `NS(=O)(=O)c1cc(NC(=O)Cc2ccccc2Cl)cc2nn(Cc3ccc(O)cc3)cc12` [Compound 34, 2-(2-chlorophenyl)-N-(2-(4-hydroxybenzyl)-4-sulfamoyl-2H-indazol-6-yl)acetamide], the half-maximal inhibitory concentration (IC50) was 10 to 50 nM.

Consider `CC(C)n1ncc2c(S(N)(=O)=O)cc(NC(=O)Cc3ccccc3Cl)cc21` [Compound 6-B, 2-(2-chlorophenyl)-N-(1-isopropyl-4-sulfamoyl-1H-indazol-6-yl)acetamide], for which the 50% inhibitory concentration (IC50) fell in the range of 10 to 50 nM.

Turning to `NS(=O)(=O)c1cc(NC(=O)Cc2ccccc2Cl)cc2c1cnn2CC1CCOCC1` [Compound 141A, 2-(2-chlorophenyl)-N-(4-sulfamoyl-1-((tetrahydro-2H-pyran-4-yl)methyl)-1H-indazol-6-yl)acetamide], the 50% inhibitory concentration (IC50) lay within 50 to 200 nM.

Regarding “N-(4-(N,N-bis(4-methoxybenzyl)sulfamoyl)-1-(4-(trifluoromethyl)benzyl)-1H-indazol-6-yl)-2-(2-chlorophenyl)acetamide [Compound 90A]”, the IC50 was at most 10 nM.

As to `COc1cnccc1Cn1cc2c(S(N)(=O)=O)cc(NC(=O)Cc3ccccc3Cl)cc2n1` [Compound 39, 2-(2-chlorophenyl)-N-(2-((3-methoxypyridin-4-yl)methyl)-4-sulfamoyl-2H-indazol-6-yl)acetamide], the IC50 lay in the range of 10 to 50 nM.

Still in this assay, the particulars now being: HEK293 cells stably expressing hP2X4, FLIPR, numeric values, read-out: P2X4 IC50.
Regarding `NS(=O)(=O)c1cc(NC(=O)Cc2ccccc2Cl)cc2cn(C(F)F)nc12` [Compound 49, 2-(2-chlorophenyl)-N-(2-(difluoromethyl)-7-sulfamoyl-2H-indazol-5-yl)acetamide], the IC50 came out at 89.5 nM.

Usually IC50 stands for the midpoint of a concentration-inhibition curve.

(Values after US12503444B2, “Compound containing benzene ring and application thereof” (WUHAN LL SCIENCE AND TECHNOLOGY DEVELOPMENT CO., LTD., priority 2019, dated 2025).)
